Results on two molecules are retold here after patent US20170037471A1, “METHODS FOR DIAGNOSING & TREATING COPPER-DEPENDENT DISEASES” (Duke University, priority 2013, published 2017).

The test system of assay [1] is Ctr1 cleavage. Description: Ctr1 cleavage in wild type and Cathepsin L-/- mouse embryonic fibroblasts, anti-Ctr1 immunoblot. Particulars: 10 μM, 16 hours, immunoblot (FIG. 7). It is filed as cell-based. The method, then: Mouse embryonic fibroblasts from wild type and CatL^−/− littermates were cultured in medium supplemented with 10% fetal bovine serum and treated with DMSO or 10 μM of the cell permeable cysteine protease inhibitor E64d and harvested 16 hours later. Total proteins were isolated from the cells by homogenizing cells in ice cold PBS supplemented with 1% Triton-X, 0.1% SDS, and 1 mM EDTA. Cell debris was removed by centrifugation and the total amounts of soluble proteins were quantified in each sample. Equal amounts of proteins were separated on tris/glycine gradient gel, transferred to nitrocellulose membrane and blocked with 5% non-fat milk in Tris buffered saline supplemented with 0.05% Tween (TBST) for 1 h. Membranes were incubated with anti-Ctr1 antibody (1:1000) followed by anti-rabbit-HRP coupled antibody (1:5000) and bands detected by enhanced chemiluminescent substrate. Anti-Tubulin antibody was used as loading control.
Lanes 1 and 2 are duplicate samples from untreated wild type cells and lanes 5 and 6 are duplicate samples from untreated Cathepsin L knock out cells.
(In general: In western blotting, separated proteins are transferred to a membrane and probed.)

Assay [2] deals with human Ctr1 protein containing the proline to alanine substitution at position 25 (Ctr1^P25A). Description: Ctr1^P25A cleavage protection in stably transfected Ctr1-/- mouse embryonic fibroblasts, anti-Ctr1 immunoblot. Particulars: Ctr1-/- MEFs expressing human Ctr1^P25A, 10 μM, 16 hours, immunoblot (FIG. 8). It is filed as cell-based. The protocol: Mouse embryonic fibroblasts from Ctr1^−/− embryos were stably transfected with plasmids expressing either the wild type human Ctr1 protein or the human Ctr1 protein containing the proline to alanine substitution at position 25 (Ctr1^P25A). Cells were cultured in medium supplemented with 20% fetal bovine serum and treated with DMSO or 10 μM cysteine protease […], Z-FY(t-Bu)-DMK and harvested 16 hours later. Total proteins were isolated from the cells by homogenizing cells in ice cold PBS supplemented with 1% Triton-X, 0.1% SDS, and 1 mM EDTA. Cell debris was removed by centrifugation and the total amounts of soluble proteins were quantified in each sample. Equal amounts of proteins were separated on tris/glycine gradient gel, transferred to nitrocellulose membrane and blocked with 5% non-fat milk in Tris buffered saline supplemented with 0.05% Tween (TBST) for 1 h. Membranes were incubated with anti-Ctr1 antibody (1:1000) followed by anti-rabbit-HRP coupled antibody (1:5000) and bands detected by enhanced chemiluminescent substrate. Anti-Actin antibody was used as loading control.

Residues, ends and D or L forms follow the SMILES beside them. *: point of attachment. Cbz = O=C(OCc1ccccc1)*; CHN2 = [N-]=[N+]=C*; tBu = CC(C)(C)*

Take `CCOC(=O)[C@H]1O[C@@H]1C(=O)N[C@@H](CC(C)C)C(=O)NCCC(C)C` (relative stereo) [E64d, (2S,3S)-trans-Epoxysuccinyl-L-leucylamido-3-methylbutane ethyl ester]: the “levels of cleaved Ctr1” value in assay [1] (Cathepsin L knock out MEFs) was “not Cathepsin L knock out cells”; in assay [1] (wild type MEFs), “dramatic reduction in the levels of cleaved Ctr1”.

As to `CC(C)(C)Oc1ccc(CC(NC(=O)C(Cc2ccccc2)NC(=O)OCc2ccccc2)C(=O)C=[N+]=[N-])cc1` (stereo not drawn) [Z-FY(t-Bu)-DMK, benzyl (1-((1-(4-(tert-butoxy)phenyl)-4-diazo-3-oxobutan-2-yl)amino)-1-oxo-3-phenylpropan-2-yl)carbamate] (Cbz-Phe-Tyr(tBu)-CHN2; configuration not given here), the “reduction in full length form of Ctr1^P25A” value in assay [2] is on record as “can be alleviated by treatment with Cathepsin L inhibitors”.
